Patent US9254290B2, “Method for screening diabetes treating agent” (GWANGJU INSTITUTE OF SCIENCE AND TECHNOLOGY, priority 2010, dated 2016)
Entries after “also recorded” stand apart in the source; their conditions may differ.

What was measured:
3T3-L1 adipocytes [1] = experiment: 6-NBDG uptake screening in 3T3-L1 adipocytes, 96-well, fluorescent microplate reader; type: cell-based, murine; settings: for effect on insulin-stimulated 6-NBDG uptake: 3 h pre-treatment with inhibitors; for NBDG uptake in adipocytes on re-testing of purified compounds: 250 nM-20 μM, compared with insulin and zinc sulfate; for effect of GLUT inhibitors (4,6-EDG, cytochalasin B) on compound-induced NBDG uptake: with 4,6-EDG (50 mM) or cytochalasin B
Method: 3T3-L1 murine fibroblasts were maintained in proliferation media, consisting of DMEM supplemented with 10% FBS, 50 units/mL penicillin and 50 μg/mL streptomycin. 3T3-L1 fibroblasts were induced to differentiate into adipocytes as follows: 48 h postconfluent cells (designated day 0) were cultured in DMEM supplemented 10% FBS, 0.5 mM 3-isobutyl-1-methyl-xanthine, 2 μg/ml dexamethasone, 1 μg/ml insulin, 50 units/mL penicillin and 50 μg/mL streptomycin for 2 days. Every 2 days thereafter, the cells were incubated with fresh DMEM supplemented with 10% FBS and 1 μg/ml insulin. 3T3-L1 adipocytes were used for experiments 8 days after the induction of differentiation.
(§1) Three cell lines were chosen to test if NBDG can be used to detect insulin-stimulated glucose uptake in a 96 well plate culture format, which is more suitable for cell-based screening to identify novel insulin mimetic compounds. The cell lines chosen were Huh7 hepatocytes, C2C12 myoblasts and 3T3-L1 pre-adipocytes, which represent the major body tissue types that are sensitive to the action of insulin (liver, muscle and fat). 10^4 cells/well were seeded in a black, 96 well tissue culture plate (BD Falcon, NJ, USA). C2C12 myoblasts and 3T3-L1 adipocytes were induced to undergo differentiation into myotubes and adipocytes, respectively, to compare the NDBG signal in proliferating and differentiated cells. NBDG uptake was measured following treatment with 10 nM or 100 nM insulin, and 1 μM or 10 μM rosiglitazone (an insulin-sensitizing agent), using a fluorescent microplate reader (SpectraMAX GeminiXS and SoftMax Pro V5 software, Molecular Devices, CA, USA). Cells were cultured in serum-free low glucose culture media for 3 h before the addition of insulin.
To test the NBDG-based screening system, a combinatorial chemical library of 576 triazine-based small molecules was screened at a concentration of 5 μM. The combinatorial library was provided by Professor Young-Tae Chang, Department of Chemistry, National University of Singapore.
To test if this screening protocol could detect new insulin mimetic compounds, a combinatorial chemical library of 576 triazine-based small molecules was screened.

3T3-L1 adipocytes [2] = experiment: Detection of apoptosis (Apo-TRACE staining, microplate quantification); type: cell-based, murine; settings: 5 μM, 24 hrs
Method: 3T3-L1 pre-adipocytes were cultured to confluence in 24-well plates and induced to differentiate into adipocytes. The induction of apoptosis was detected using the Apo-TRACE™ Apoptotic Cell Staining Kit (Sigma-Aldrich, SL, USA), which employs a fluorescent compound that responds to alterations in plasma membrane potential and phospholipid scrambling, which are hallmarks of apoptotic cells. Apoptotic cells were visualized by microscopy under UV illumination (Olympus IX81, Japan) equipped with MetaMorph 7.5 image capture software (Molecular Devices, CA, USA)). Images were processed with Photoshop CS4 software (Adobe Systems Incorporated, CA, USA). Apoptosis was quantified by fluorescent microplate reader analysis of cell lysate.

3T3-L1 adipocytes [3] = experiment: Epinephrine-stimulated free fatty acid release assay; type: cell-based, murine; settings: for inhibition of epinephrine-stimulated free fatty acid release: 5 μM compound, 10 μM epinephrine
Method: Epinephrine-stimulated free fatty acid (FFA) release from adipocytes was measured using the Free Fatty Acid Quantification Kit (Biovision, CA, USA), following the method previously described^13. Confluent 3T3-L1 adipocytes in a 24 well plate were cultured for 3 h in serum-free culture media. Adipocytes were then treated with 10 μM epinephrine dissolved in saline to induce FFA […] release. Drug of interest was added 10 min before the addition of epinephrine. Cell lysate was collected and 50 μL of the organic phase was used for assay. Palmitic acid was used to generate the standard curve.

3T3-L1 adipocytes [4] = experiment: Commercial enzyme-based glucose content assay (Biovision); type: cell-based, murine; settings: tested in triplicate
Method: For comparison and validation of our new screening based on NBDG uptake, we used a commercial, enzyme-based glucose assay provided by Biovision Inc., CA, USA. 3T3-L1 adipocytes were seeded at 5×10^4 cells/well in a 96-well culture plate. 24 h later, culture media was changed and adipocytes were cultured in serum-free low glucose DMEM for 3 h prior to drug treatment. Cells were lysed with 100 μL Cell Lytic M (Sigma-Aldrich, SL, USA) and 50 μL lysate was used for assay.

[5] = test system: human aortic endothelial cells (HAEC); experiment: Monocyte-endothelial cell adhesion assay (THP-1 monocytes, hyperglycemia); type: cell-based; settings: 30 mM glucose; 5 μM compound for 3 hrs before THP-1 monocytes
Method: (§2) HAEC were exposed to hyperglycemia (30 mM glucose) for days and treated with 5 μM compounds AP-III-a4 or AP-I-h7 or 100 nM insulin for 3 hrs prior to addition of THP-1 monocytes. […] Data is representative of three independent experiments. 5 mM glucose=normoglycemia; 30 mM glucose=hyperglycemia (5 days treatment); AP-III-a4=hyperglycemia (5 days treatment) and 24 hrs treatment with 5 μM AP-III-a4; AP-I-h7=hyperglycemia (5 days treatment) and 24 hrs treatment with […]; MLB=hyperglycemia (5 days treatment) and 48 hrs treatment with 50 μM magnesium lithospermate B.
Human aortic endothelial cells were supplied by Cambrex (NJ, USA) and cultured in EBM-2 growth media supplemented with the EGM-2 bullet kit. […]
The adhesion of mouse inflammatory peritoneal (IP) exudate macrophages to endothelial cell monlayers was carried out as previously described.^14 Briefly, endothelial cells were cultured to confluence in 6-well culture plates and treated with drug with or without high glucose (30 mM for 48 h) culture media. […] The unbound cells were washed three times with serum-free RPMI-1640 medium, and the total number of adherent cells was counted in four randomly selected optical fields per well (100× magnification; Olympus microscope CKX41, Japan; microscopic images were captured with a DigiEye 330 digital camera (Dewinter, India) and Biowizard 4.3 software (Dewinter, India)). […]

VCAM-1 [6] = experiment: VCAM-1 expression in HAEC exposed to hyperglycemia (Western blot); type: cell-based, human; settings: 30 mM glucose 5 days; 24 hrs treatment with 5 μM
Method: as §2
Human aortic endothelial cells were supplied by Cambrex (NJ, USA) and cultured in EBM-2 growth media supplemented with the EGM-2 bullet kit. THP-1 human monocytic cells were cultured in RPMI-1640 medium supplemented with […] 2-mercaptoethanol, 10% fetal bovine serum and antibiotics. Cells were cultured in growth media containing 5 mM glucose for the normoglycemia condition or 30 mM glucose for the hyperglycemia condition.
Proteins were separated by 10% SDS-PAGE and transferred onto […] nitrocellulose (Bio-Rad, CA, USA). Densitometry was carried out using TINA 2.10e software (Catholic University Medical College (GmBH), Germany).

[7] = test system: insulin resistant 3T3-L1 adipocytes; experiment: NBDG uptake in adipocytes rendered insulin resistant with TNF-α; type: cell-based, murine
Description: (§3) Error=SD. *=P<0.05 compared to 3T3-L1 adipocytes in the same treatment group. […] Data is representative of three independent experiments.

[8] = test system: 3T3-L1 adipocytes and pre-adipocytes; experiment: Fluorescent microscope analysis of NBDG uptake in mixed cultures of adipocytes and pre-adipocytes; type: cell-based, murine; settings: 10 μM compound; adipocytes vs pre-adipocytes (fibroblast-like)
Description: as §3

3T3-L1 adipocytes [9] = experiment: Necrosis / cell death by trypan blue exclusion; type: cell-based; settings: 24 h after treatment
Method: Necrosis was detected by the ability of cells to exclude the dye, trypan blue. 3T3-L1 adipocytes were cultured to confluence in 6-well plates and treated with drug. Adipocytes were then harvested by trpsinization and resuspended in 1 mL PBS. A 50 μL aliquot was taken and stained with an equal volume of 0.4% trypan blue solution (Sigma, SL, USA). Cells that could not exclude dye were classified as necrotic and quantified using a hemocytometer.

3T3-L1 adipocytes [10] = experiment: 2-NBDG uptake in insulin-responsive cell lines, 96-well; type: cell-based, murine; settings: 10 nM or 100 nM insulin, 30 min; compared to Huh7, C2C12 myoblasts/myotubes, 3T3-L1 pre-adipocytes
Method: as §1

[11] = test system: human aortic endothelial cells (HAEC); settings: cited from earlier work
VCAM-1 [12] = settings: cited from earlier work

## CC1OC[C@H]2O[C@H](O)[C@H](O)[C@@H](O)[C@@H]2O1 (stereo partly drawn) [4,6-EDG, 4,6-ethylidine-D-glucose, reference compound]
3T3-L1 adipocytes [1]; 100 nM insulin
  effect on insulin-stimulated 6-NBDG uptake: reduced insulin-stimulated uptake of 6-NBDG; also recorded: inhibited

## CCCCNc1nc(NCCc2ccccc2)nc(Nc2ccc(CC(=O)NCCOCCOCCN)cc2)n1 [AP-I-h7]
3T3-L1 adipocytes [1]
  NBDG uptake in adipocytes on re-testing of purified compounds: can increase NBDG uptake; also recorded: promote NBDG uptake in adipocytes
  effect of GLUT inhibitors (4,6-EDG, cytochalasin B) on compound-induced NBDG uptake: sensitive to exo- and endofacial inhibitors of GLUT
3T3-L1 adipocytes [2]
  induction of apoptosis: did not induce apoptosis
3T3-L1 adipocytes [3]
  concentration required to produce insulin mimetic activity in adipocytes: 5 µM
  inhibition of epinephrine-stimulated free fatty acid release: could inhibit epinephrine-stimulated free fatty acid release; also recorded: inhibit 10 μM epinephrine-mediated FFA release
3T3-L1 adipocytes [4]
  cellular glucose content: induced an increase in cellular glucose content
[5]
  monocyte adhesion in hyperglycemic conditions: decreased monocyte adhesion; also recorded: reduced monocyte adhesion
VCAM-1 [6]
  VCAM-1 expression / upregulation in hyperglycemic conditions: decreased VCAM-1 upregulation; also recorded: reduced the expression of VCAM-1
[7]
  sensitivity of compound-induced NBDG uptake to insulin resistance: sensitive to the induction of insulin resistance
[8]
  cell-type preference of NBDG uptake: preferentially taken up in the adipocytes; also recorded: preferentially occurs in adipocytes rather than fibroblasts

## NCCOCCOCCNC(=O)Cc1ccc(Nc2nc(NCc3ccc(F)cc3)nc(NCC3CCCCC3)n2)cc1 [AP-III-a4]
3T3-L1 adipocytes [1]
  NBDG uptake in adipocytes on re-testing of purified compounds: can increase NBDG uptake; also recorded: promote NBDG uptake in adipocytes
  effect of GLUT inhibitors (4,6-EDG, cytochalasin B) on compound-induced NBDG uptake: sensitive to exo- and endofacial inhibitors of GLUT
3T3-L1 adipocytes [2]
  induction of apoptosis: did not induce apoptosis
3T3-L1 adipocytes [3]
  concentration required to produce insulin mimetic activity in adipocytes: 5 µM
  inhibition of epinephrine-stimulated free fatty acid release: could inhibit epinephrine-stimulated free fatty acid release; also recorded: inhibit 10 μM epinephrine-mediated FFA release
3T3-L1 adipocytes [4]
  cellular glucose content: induced an increase in cellular glucose content
[5]
  monocyte adhesion in hyperglycemic conditions: decreased monocyte adhesion; also recorded: reduced monocyte adhesion
VCAM-1 [6]
  VCAM-1 expression / upregulation in hyperglycemic conditions: decreased VCAM-1 upregulation; also recorded: reduced the expression of VCAM-1
[7]
  sensitivity of compound-induced NBDG uptake to insulin resistance: sensitive to the induction of insulin resistance
[8]
  cell-type preference of NBDG uptake: preferentially taken up in the adipocytes; also recorded: preferentially occurs in adipocytes rather than fibroblasts

## CCCCNc1nc(Nc2ccc(CC(=O)NCCOCCOCCN)cc2)nc(N2CCCCC2)n1 [AP-IV-e3]
3T3-L1 adipocytes [1]
  NBDG uptake in adipocytes on re-testing of purified compounds: can increase NBDG uptake; also recorded: promote NBDG uptake in adipocytes
  effect of GLUT inhibitors (4,6-EDG, cytochalasin B) on compound-induced NBDG uptake: sensitive to exo- and endofacial inhibitors of GLUT
3T3-L1 adipocytes [2]
  induction of apoptosis: induced apoptosis
3T3-L1 adipocytes [9]
  induction of cell death (trypan blue exclusion): induced cell death

## NCCOCCOCCNC(=O)Cc1ccc(Nc2nc(NCC3CCCCC3)nc(N3CCCCC3)n2)cc1 [AP-IV-e4]
3T3-L1 adipocytes [1]
  NBDG uptake in adipocytes on re-testing of purified compounds: can increase NBDG uptake; also recorded: promote NBDG uptake in adipocytes
  effect of GLUT inhibitors (4,6-EDG, cytochalasin B) on compound-induced NBDG uptake: sensitive to exo- and endofacial inhibitors of GLUT
3T3-L1 adipocytes [2]
  induction of apoptosis: induced apoptosis
3T3-L1 adipocytes [9]
  induction of cell death (trypan blue exclusion): induced cell death

## C=C1[C@@H](C)[C@H]2[C@H](Cc3ccccc3)NC(=O)[C@]23OC(=O)/C=C/[C@H](O)CCC[C@@H](C)C/C=C/[C@H]3[C@@H]1O [cytochalasin B, reference compound]
3T3-L1 adipocytes [1]; 100 nM insulin
  effect on insulin-stimulated 6-NBDG uptake: reduced insulin-stimulated uptake of 6-NBDG; also recorded: inhibited

## O=S(=O)([O-])[O-].[Zn+2] [zinc sulfate, reference compound]
3T3-L1 adipocytes [1]
  effect of GLUT inhibitors (4,6-EDG, cytochalasin B) on compound-induced NBDG uptake: reduced NBDG uptake

## insulin: Insulin from bovine pancreas
3T3-L1 adipocytes [1]; 1 μM rosiglitazone, 100 nM insulin
  sensitivity of 6-NBDG uptake in adipocytes to the agent: sensitive
3T3-L1 adipocytes [10]
  2-NBDG uptake after insulin treatment: largest increase in 2-NBDG uptake
3T3-L1 adipocytes [4]
  cellular glucose content: induced an increase in cellular glucose content
[11]
  effect on monocyte-endothelial adhesion (literature): no inhibitory effect on monocyte-endothelial adhesion
VCAM-1 [12]
  effect on adhesion molecule expression in endothelial cells (literature): not to inhibit adhesion molecule expression
